Reference: patent publication US20240368157A1, “FORMS AND COMPOSITIONS OF A JAK2 INHIBITOR” (Ajax Therapeutics, Inc., priority 2023, published 2024)

Key:
[1] = Interconversion slurry experiments; conditions: slurry EtOH:H2O (90:10), 65° C.; material with small peak at ˜8.0 °2θ
Procedure: Mixtures of Form H and Form I with Form B were utilized in these interconversion slurry experiments. […] The interconversion slurries were performed at ambient and elevated (65° C.) temperatures in various solvents and solvent mixtures.

[2] = molecular target: T1, JAK2 (JH1domain-catalytic, Y1007F, Y1008F) kinase (Homo sapiens, UniProt O60674, Y1007F/Y1008F); assay: JAK2 Binding Assay
T1 construct: JAK2 (JH1domain-catalytic, Y1007F, Y1008F) kinase was expressed as N-terminal fusion; made in house; host or cells: transiently transfected HEK293 cells
T1 sequence (O60674 849-1124 Y1007F/Y1008F limits assumed): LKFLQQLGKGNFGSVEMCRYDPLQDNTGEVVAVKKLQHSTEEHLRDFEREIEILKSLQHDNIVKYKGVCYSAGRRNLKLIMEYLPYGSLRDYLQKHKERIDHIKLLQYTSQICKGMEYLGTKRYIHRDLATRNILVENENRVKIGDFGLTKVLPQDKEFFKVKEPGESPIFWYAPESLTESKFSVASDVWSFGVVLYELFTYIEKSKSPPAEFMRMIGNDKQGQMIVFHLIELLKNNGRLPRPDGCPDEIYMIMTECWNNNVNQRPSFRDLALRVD
Procedure: JAK2 (JH1domain-catalytic, Y1007F, Y1008F) kinase was expressed as N-terminal fusion to the DNA binding domain of NFkB in transiently transfected HEK293 cells and subsequently tagged with DNA for qPCR detection. Streptavidin-coated magnetic beads were treated with biotinylated small molecule ligands for 30 minutes at room temperature to generate affinity resins for kinase assays. The liganded beads were blocked with excess biotin and washed with blocking buffer (SeaBlock (Pierce), 1% BSA, 0.05% Tween 20, 1 mmol/L DTT) to remove unbound ligand and to reduce nonspecific phage binding. Binding reactions were assembled by combining kinases, liganded affinity beads, and test compounds in 1× binding buffer (1×PBS, 0.05% Tween 20, 0.1% BSA, 1 mmol/L DTT). Test compound was prepared as 111× stocks in 100% DMSO and directly diluted into the assay wells. All reactions were performed in polypropylene 384-well plates in a final volume of 0.02 mL. The assay plates were incubated at room temperature with shaking for 1 hour and the affinity beads were washed with wash buffer (1×PBS, 0.05% Tween 20). The beads were then re-suspended in elution buffer (1×PBS, 0.05% Tween 20, 0.5 μmol/L non-biotinylated affinity ligand) and incubated at room temperature with shaking for 30 minutes. The kinase concentration in the eluate was measured by qPCR.

JAK3 = molecular target: T2, JAK3 (Homo sapiens, UniProt P52333); assay: JAK Family Selectivity Assay (JAK3 vs JAK2 binding affinity); conditions: selectivity over JAK2
T2 construct: made in house; host or cells: E. coli (BL21-derived, T7 phage display) or HEK-293
T2 sequence (P52333 1-1124): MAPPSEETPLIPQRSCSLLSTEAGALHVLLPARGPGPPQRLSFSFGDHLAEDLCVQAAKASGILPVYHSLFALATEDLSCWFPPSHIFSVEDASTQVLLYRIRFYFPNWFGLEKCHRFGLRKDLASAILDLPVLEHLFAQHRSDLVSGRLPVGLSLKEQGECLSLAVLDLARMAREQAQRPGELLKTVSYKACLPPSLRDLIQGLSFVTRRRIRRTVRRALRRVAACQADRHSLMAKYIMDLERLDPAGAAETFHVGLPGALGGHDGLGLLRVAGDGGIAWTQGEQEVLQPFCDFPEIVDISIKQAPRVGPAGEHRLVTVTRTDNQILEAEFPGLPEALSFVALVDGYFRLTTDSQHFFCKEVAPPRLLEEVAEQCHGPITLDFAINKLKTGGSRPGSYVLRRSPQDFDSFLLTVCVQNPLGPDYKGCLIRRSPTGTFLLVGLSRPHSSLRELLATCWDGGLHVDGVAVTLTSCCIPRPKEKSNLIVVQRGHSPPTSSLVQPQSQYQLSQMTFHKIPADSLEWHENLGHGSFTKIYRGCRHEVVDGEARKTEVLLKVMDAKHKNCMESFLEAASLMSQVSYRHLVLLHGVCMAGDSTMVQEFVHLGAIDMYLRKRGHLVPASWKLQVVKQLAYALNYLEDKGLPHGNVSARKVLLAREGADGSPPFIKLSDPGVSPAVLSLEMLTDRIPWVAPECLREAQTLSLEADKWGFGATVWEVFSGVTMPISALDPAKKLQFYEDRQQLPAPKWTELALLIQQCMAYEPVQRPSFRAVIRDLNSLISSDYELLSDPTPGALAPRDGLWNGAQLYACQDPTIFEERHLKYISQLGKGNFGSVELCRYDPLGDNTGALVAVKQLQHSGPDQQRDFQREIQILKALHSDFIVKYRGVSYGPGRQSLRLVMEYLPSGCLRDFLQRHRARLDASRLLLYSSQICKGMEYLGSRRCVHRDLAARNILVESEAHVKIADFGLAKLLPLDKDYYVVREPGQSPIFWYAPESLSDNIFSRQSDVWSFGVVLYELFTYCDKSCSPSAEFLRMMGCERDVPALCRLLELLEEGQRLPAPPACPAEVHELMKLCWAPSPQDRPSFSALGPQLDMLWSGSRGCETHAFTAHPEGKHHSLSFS
Procedure: Provided compounds are evaluated for selectivity by comparing their JAK2 binding affinity (Kd) in the above JAK2 Binding Assay with their binding affinity (Kd) for one or more other kinases. Binding affinity for other kinases is determined as follows: Kinase-tagged T7 phage strains are prepared in an E. coli host derived from the BL21 strain. E. coli are grown to log-phase and infected with T7 phage and incubated with shaking at 32° C. until lysis. The lysates are centrifuged and filtered to remove cell debris. The remaining kinases are produced in HEK-293 cells and subsequently tagged with DNA for qPCR detection. Streptavidin-coated magnetic beads are treated with biotinylated small molecule ligands for 30 minutes at room temperature to generate affinity resins for kinase assays. The liganded beads are blocked with excess biotin and washed with blocking buffer (SeaBlock (Pierce), 1% BSA, 0.05% Tween 20, 1 mM DTT) to remove unbound ligand and to reduce non-specific binding. Binding reactions are assembled by combining kinases, liganded affinity beads, and test compounds in 1× binding buffer (20% SeaBlock, 0.17×PBS, 0.05% Tween 20, 6 mM DTT). Test compounds are prepared as 111× stocks in 100% DMSO. Kds are determined using an 11-point 3-fold compound dilution series with three DMSO control points. […] The kinase concentration in the eluates is measured by qPCR. […]

CN(C)C(=O)Nc1cc(Oc2cnc3nc(Nc4cc(C(F)(F)F)cn(C)c4=O)n(C)c3c2C#N)ccn1 [Compound 1, 3-(4-((7-cyano-1-methyl-2-((1-methyl-2-oxo-5-(trifluoromethyl)-1,2-dihydropyridin-3-yl)amino)-1H-imidazo[4,5-b]pyridin-6-yl)oxy)pyridin-2-yl)-1,1-dimethylurea]
degradation by HPLC analysis [1]: small amount of degradation | Kd [2]: < 10 nM | JAK3/JAK2 Kd/Kd ratio (JAK3): A (Kd/Kd ratio≥1000)

CCN1CCN(Cc2ccc(Nc3nc4ccc(Oc5ccnc(NC(C)=O)c5)cc4n3C)cc2C(F)(F)F)CC1 [Compound R-1, reference compound]
JAK3/JAK2 Kd/Kd ratio (JAK3): A (Kd/Kd ratio≥1000)
